Values joined by “and” are separate entries in the source; they are usually repeats but may differ in a detail not shown here. Equal values may be shown once. “Also recorded” adds a separate entry of the source. Read-outs that look alike come from different tables or passages of the source.
Tests used:
[1] = system: HIV-1IIIB; experiment: Anti-HIV activity: protection of MT-2 cells infected with HIV-1IIIB (MTT-dye reduction); format: cell-based; settings: Human immunodeficiency virus 1, MT2, 120 h
Protocol: (§1) The following anti-HIV drugs were tested in combination with the L-nucleosides β-L-5-fluoro-2',b 3'-dideoxycytidine [β-L-FddC or L(-)FddC], β-L-5-fluoro-2',3'-dideoxy-2',3'-didehydrocytidine [β-L-Fd4C or L(-)Fd4C], β-L-5-fluoro-2',3'-dideoxy-3'-thiacytidine [L(-)FTC] and β-L-2',3'-dideoxy-3'-thiacytidine [L(-)SddC or 3TC]: 3'-azido-3'deoxythymidine (AZT) as well as the β-D-2',3'-dideoxynucleosides, for example, β-D-2',3'-dideoxycytidine (ddC), β-D-2',3'-dideoxyadenosine, β-D-2',3'-dideoxyinosine (DDI) and β-D-2',3'-didehydro-3'-deoxy-thymidine (D4T). β-L-FddC and β-L-Fd4C was obtained following the method of Lin, et al., J. Med. Chem., 37, no. 6 (1994). L(-)FTC and L(-)SddC were prepared by standard literature procedures. See, for example, Jeong, et al. J. Med. Chem., 36, 181 (1993). AZT was obtained from Sigma Chemical Co., St. Louis, Mo., USA. ddC was obtained from Aldrich Chemical Co., Milwaukke, Wis. USA. DDI and D4T were obtained from Bristol-Myers Co., Wallingford, Conn., USA.
(§2) The above-mentioned drugs were tested using MT-2 cells infected with HIV-1IIIB as described by JW Mellers, et al., Molecular Pharm. 41, 446-451 (1991) with some modification. Briefly, triplicate wells of 96-well plates containing 1×10^4 MT-2 cells were infected with HIV-1IIIB at a multiplicity of infection (MOI) of 0.1 TCID50 per cell (TCID50 - 50% tissue culture infective dose). Serial dilutions of drug were added immediately after infection. Cell viability was quantitated 5 days after infection by the MTT-dye reduction model (Larder, et al. Antimicrob. Agents Chemother. 34, 436-441, 1990). The percentage of protection was calculated with the formula [(a-b/c-b)×100], in which a=the A595 of drug-treated, virus-infected well, b=A595 of no-drug infected wells, and c=A595 of no-drug, uninfected wells.

[2] = system: CEM, a Human T-type lymphoblast tumor cell line; experiment: Cell growth inhibition of CEM cells by D-nucleosides with or without L-nucleosides; format: cell-based
From the text: CEM, a Human T-type lymphoblast tumor cell line was used for this study. […] At the end of four days after the addition of the drug, the cell number was estimated by hemocytometer. […] The data, presented below in Table 1-3, are normalized against the control. The parenthetical values represent the expected effect the combined agents should have on cell growth.

[3] = system: HIV-1IIIB; experiment: Anti-HIV combination of D- and L-nucleosides in HIV-1IIIB infected MT-2 cells (isobolograms); format: cell-based; settings: for Effect of L-nucleoside on ID50 of co-administered D-nucleoside: with AZT, D4T, ddC or DDI
Protocol: as §1, §2
Isobolograms (FIGS. 1-2) were plotted as the percent change in the ID50 of β-L-FddC (L(-)FddC), L(-)FTC, L(-)SddC (FIGS. 1 and 2) β-L-Fd4C (L(-)Fd4C) at various concentrations in combination with AZT, D4T, ddC or DDI at varying concentations on the x-axis and vice versa on the y-axis. Isobolograms (FIG. 3) were plotted as the percent change in the ID50 of β-L-Fd4C (L(-)Fd4C) at various concentrations in combination with AZT or D4T at varying concentrations on the x-axis and vice-versa on the y-axis.

[4] = system: Mitochondrial DNA (mtDNA); experiment: Mitochondrial DNA (mtDNA) content of CEM cells (slot blot); format: cell-based, Human; settings: with AZT, ddC, DDI or D4T
Protocol: To determine the effect of nucleoside analogues on mtDNA content, CEM cells were treated with various concentrations of drug 8 days with medium and drug changes every 2 days. Cells (1×10^5)are washed twice with phosphate buffered […] (PBS) and resuspended in 25 mM Tris (pH 8.0) and 1 mM EDTA. The cells are lysed by 5 cycles of freeze/thaw. RNAase A (DNase free, final concentration of 0.1 mg/ml) is added to the cel ysate and incubated for 3 hours at 50° C. The lysate is brought to a final concentration of 10×SSC, boiled for 10 min., and applied to a nylon membrane presoaked in 2X SSC using a slot blot apparatus. […] All blots are normalized for loading using an Alu probe (ATCC). Blots are exposed to X-ray film and quantitated using a Molecular Dynamics Personal Densitometer SI.

[5] = MT-2 cells, HIV-1IIIB, MOI 0.1 TCID50 per cell, 5 days, unit inferred, read-out: ID50 (the source's name)
[6] = Homo sapiens, CCRF-CEM, 96 h, single agent, day 4, read-out: Day 4 Cell Growth - % of Control
[7] = Homo sapiens, CCRF-CEM, 96 h, single agent, 1.0 uM, day 4, read-out: Day 4 Cell Growth - % of Control

Cc1cn([C@H]2C=C[C@@H](CO)O2)c(=O)[nH]c1=O [D4T, β-D-2',3'-didehydro-3'-deoxy-thymidine] was tested, and the IC50 ([1]; read-out: ID50) was 6000 nM, the “Day 4 Cell Growth - % of Control” value ([2]; 0.3 uM, in combination with 1 uM 3TC) was 94 % of Control and the “Day 4 Cell Growth - % of Control” value ([2]; 0.3 uM, in combination with 1 uM (-) FTC) was 84 % of Control. For the same molecule, the “Day 4 Cell Growth - % of Control” value ([2]; 0.3 uM, in combination with 1 uM β-L-FddC) was 86 % of Control, the “Day 4 Cell Growth - % of Control” value ([2]; 3.0 uM, in combination with 1 uM 3TC) was 86 % of Control and the “Day 4 Cell Growth - % of Control” value ([2]; 3.0 uM, in combination with 1 uM (-) FTC) was 75 % of Control. The “Day 4 Cell Growth - % of Control” value ([2]; 3.0 uM, in combination with 1 uM β-L-FddC) was 75 % of Control, the “Day 4 Cell Growth - % of Control” value ([2]; 30 uM, in combination with 1 uM 3TC) was 73 % of Control and the “Day 4 Cell Growth - % of Control” value ([2]; 30 uM, in combination with 1 uM (-) FTC) was 65 % of Control. For the same molecule, the “Day 4 Cell Growth - % of Control” value ([2]; 30 uM, in combination with 1 uM β-L-FddC) was 68 % of Control, the activity at 0.3 µM ([2]; Homo sapiens, CCRF-CEM, 96 h, single agent, 0.3 uM, day 4, read-out: Day 4 Cell Growth - % of Control) was 98% and the activity at 3 µM ([2]; Homo sapiens, CCRF-CEM, 96 h, single agent, 3.0 uM, day 4, read-out: Day 4 Cell Growth - % of Control) was 84%. The activity at 30 µM ([2]; Homo sapiens, CCRF-CEM, 96 h, single agent, 30 uM, day 4, read-out: Day 4 Cell Growth - % of Control) was 70%, the “Day 4 Cell Growth - % of Control, expected effect of the combined agents (parenthetical)” value (“Day 4 Cell Growth - % … (parenthetical)” below) ([2]; 0.3 uM with 1 uM β-L-FddC) was 82 % of Control and the “Day 4 Cell Growth - % … (parenthetical)” value ([2]; 3.0 uM with 1 uM β-L-FddC) was 71 % of Control. For the same molecule, the “Day 4 Cell Growth - % … (parenthetical)” value ([2]; 30 uM with 1 uM β-L-FddC) was 59 % of Control, the “Day 4 Cell Growth - % of Control” value ([2]; single agent, 0.3 uM, 5760 min) was 89 % of Control and the “Day 4 Cell Growth - % of Control” value ([2]; single agent, 3.0 uM, 5760 min) was 80 % of Control. For the same molecule, the “Day 4 Cell Growth - % of Control” value ([2]; single agent, 30 uM, 5760 min) was 65 % of Control and 64 % of Control and the “Nature of the anti-HIV combination effect with L-nucleosides (ID50)” value ([3]; D-nucleoside co-administered with β-L-FddC, L(-)FTC, L(-)SddC or β-L-Fd4C) was “synergistically; also recorded: synergistic”.
Work on Nc1ccn([C@@H]2CS[C@H](CO)O2)c(=O)n1 [L(-)SddC, β-L-2',3'-dideoxy-3'-thiacytidine] yielded an IC50 [1, 5] of 3000 nM, an activity at 0.1 µM [2, 6] of 94% and an activity at 1 µM [2, 7] of 89%. The activity at 10 µM [2, 6] was 80%, the activity at 50 µM ([2]; Homo sapiens, CCRF-CEM, 96 h, single agent, 50 uM, day 4, read-out: Day 4 Cell Growth - % of Control) was 76% and the “Effect of L-nucleoside on ID50 of co-administered D-nucleoside” value (“Effect … of co-administered D-nucleoside” for short) [3] was “reduces the ID50 value of AZT, ddC, DDI and D4T; also recorded: decreases the ID50 of a co-administered D-nucleoside and vice versa”.
Nc1nc(=O)n(C2CCC(CO)O2)cc1F (single isomer, unassigned) [β-L-FddC, β-L-5-fluoro-2',3'-dideoxycytidine] was tested, and the IC50 ([1]; MT-2 cells, HIV-1IIIB, MOI 0.1 TCID50 per cell, 5 days, read-out: ID50 (the source's name)) was 450 nM, the activity at 1 µM [2, 7] was 84% and the “Effect of L-nucleoside on D-nucleoside inhibition of mitochondrial DNA synthesis” value [4] was “could prevent the effect of AZT, ddC, DDI or D4T in inhibiting the synthesis of mitochondrial DNA synthesis; also recorded: appears to inhibit the ability of the co-administered D-nucleoside to inhibit the synthesis of mitochondrial DNA”. The “Effect … of co-administered D-nucleoside” value [3] was “reduces the ID50 value of AZT, ddC, DDI and D4T; also recorded: decreases the ID50 of a co-administered D-nucleoside and vice versa”.
Nc1nc(=O)n([C@@H]2CS[C@H](CO)O2)cc1F [L(-)FTC, β-L-5-fluoro-2',3'-dideoxy-3'-thiacytidine] gave an IC50 [1, 5] of 600 nM, an activity at 0.1 µM [2, 6] of 104% and an activity at 1 µM [2, 7] of 87%. For the same molecule, the activity at 10 µM [2, 6] was 76%, the “Day 4 Cell Growth - % of Control” value ([2]; single agent, 1.0 uM, listed as (-) FTC, 5760 min) was 84 % of Control and the “Day 4 Cell Growth - % of Control” value ([2]; single agent, 1.0 uM, listed as FTC, 5760 min) was 87 % of Control. The “Effect of L-nucleoside on D-nucleoside inhibition of mitochondrial DNA synthesis” value [4] was “could prevent the effect of AZT, ddC, DDI or D4T in inhibiting the synthesis of mitochondrial DNA synthesis” and the “Effect … of co-administered D-nucleoside” value [3] was “reduces the ID50 value of AZT, ddC, DDI and D4T; also recorded: decreases the ID50 of a co-administered D-nucleoside and vice versa”.
